Tests used:
CAL-72 (Osteosarcoma) [1] = assay: combination Emax (second highest fraction inhibited in the dose matrix, 72 h); higher = more inhibition; extreme values may be limits of the assay
How it was run: (§1)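 Bliss excess equals the observed combination effect minus the expected value EA + EB − EA·EB, where EA and EB are the effects of each agent alone. Combination Emax is the second-highest inhibition within the matrix. Inhibition was scaled from CellTiter-Glo 2.0 luminescence, with 0 set by vehicle wells and 1 by blank wells, after 72 hours of two-drug dosing of cells plated in 1536-well plates.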

[2] = test system: SW1710 (Bladder Carcinoma); assay: as above
How it was run: as §1

LOXIMVI (Melanoma) [3] = assay: as above
How it was run: as §1

[4] = test system: LNZTA3WT4 (Low Grade Glioma); assay: as above
How it was run: as §1

[5] = test system: WSU-NHL (B-Cell Non-Hodgkin's Lymphoma); assay: as above
How it was run: as §1

[6] = test system: SNU-16 (Gastric Carcinoma); assay: as above
How it was run: as §1

[7] = test system: LS-123 (Colorectal Carcinoma); assay: as above
How it was run: as §1

[8] = test system: KYAE-1 (Esophageal Adenocarcinoma); assay: as above
How it was run: as §1

[9] = test system: TGBC1TKB (Biliary Tract Carcinoma); assay: as above
How it was run: as §1

[10] = test system: NCI-H524 (Small Cell Lung Carcinoma); assay: as above
How it was run: as §1

[11] = test system: YAPC (Pancreatic Carcinoma); assay: as above
How it was run: as §1

GAMG (Glioblastoma) [12] = assay: as above
How it was run: as §1

[13] = test system: SNU-449 (Hepatocellular Carcinoma); assay: as above
How it was run: as §1

[14] = test system: BE-13 (T-Lymphoblastic Leukemia); assay: as above
How it was run: as §1

A673 (Ewing's Sarcoma) [15] = assay: as above
How it was run: as §1

MPP-89 (Mesothelioma) [16] = assay: as above
How it was run: as §1

[17] = test system: ESS-1 (Other Solid Carcinomas); assay: as above
How it was run: as §1

[18] = test system: HH (T-Cell Non-Hodgkin's Lymphoma); assay: as above
How it was run: as §1

[19] = test system: OVCAR-5 (Ovarian Carcinoma); assay: as above
How it was run: as §1

KS-1 (Glioblastoma) [20] = assay: as above
How it was run: as §1

EW-11 (Ewing's Sarcoma) [21] = assay: as above
How it was run: as §1

[22] = test system: SAS (Oral Cavity Carcinoma); assay: as above
How it was run: as §1

[23] = test system: HuCCT1 (Biliary Tract Carcinoma); assay: as above
How it was run: as §1

CAL-72 (Osteosarcoma) [24] = assay: Bliss excess, mean over the matrix (fraction); higher = more synergy
How it was run: as §1

[25] = test system: SW1710 (Bladder Carcinoma); assay: as above
How it was run: as §1

LOXIMVI (Melanoma) [26] = assay: as above
How it was run: as §1

[27] = test system: LNZTA3WT4 (Low Grade Glioma); assay: as above
How it was run: as §1

[28] = test system: WSU-NHL (B-Cell Non-Hodgkin's Lymphoma); assay: as above
How it was run: as §1

[29] = test system: SNU-16 (Gastric Carcinoma); assay: as above
How it was run: as §1

[30] = test system: LS-123 (Colorectal Carcinoma); assay: as above
How it was run: as §1

[31] = test system: TGBC1TKB (Biliary Tract Carcinoma); assay: as above
How it was run: as §1

[32] = test system: NCI-H524 (Small Cell Lung Carcinoma); assay: as above
How it was run: as §1

[33] = test system: YAPC (Pancreatic Carcinoma); assay: as above
How it was run: as §1

GAMG (Glioblastoma) [34] = assay: as above
How it was run: as §1

[35] = test system: SNU-449 (Hepatocellular Carcinoma); assay: as above
How it was run: as §1

[36] = test system: BE-13 (T-Lymphoblastic Leukemia); assay: as above
How it was run: as §1

A673 (Ewing's Sarcoma) [37] = assay: as above
How it was run: as §1

MPP-89 (Mesothelioma) [38] = assay: as above
How it was run: as §1

[39] = test system: ESS-1 (Other Solid Carcinomas); assay: as above
How it was run: as §1

[40] = test system: HH (T-Cell Non-Hodgkin's Lymphoma); assay: as above
How it was run: as §1

[41] = test system: OVCAR-5 (Ovarian Carcinoma); assay: as above
How it was run: as §1

KS-1 (Glioblastoma) [42] = assay: as above
How it was run: as §1

EW-11 (Ewing's Sarcoma) [43] = assay: as above
How it was run: as §1

[44] = test system: SAS (Oral Cavity Carcinoma); assay: as above
How it was run: as §1

[45] = test system: HuCCT1 (Biliary Tract Carcinoma); assay: as above
How it was run: as §1

[46] = test system: KYAE-1 (Esophageal Adenocarcinoma); assay: as above
How it was run: as §1

SMILES: C=CCn1c(=O)c2cnc(Nc3ccc(N4CCN(C)CC4)cc3)nc2n1-c1cccc(C(C)(C)O)n1 [AZD1775] + Nc1ccn([C@@H]2O[C@H](CO)[C@@H](O)C2(F)F)c(=O)n1 [Gemcitabine] (first compound max 1 µM, partner max 0.3 µM)
- combination Emax (CAL-72 (Osteosarcoma) [1]): 0.716
- combination Emax [2]: 0.755
- combination Emax (LOXIMVI (Melanoma) [3]): 0.797
- combination Emax [4]: 0.886
- combination Emax [5]: 0.987
- combination Emax [6]: 0.998
- combination Emax [7]: 0.68
- combination Emax [8]: 0.316
- combination Emax [9]: 0.454
- combination Emax [10]: 0.951
- combination Emax [11]: 0.643
- combination Emax (GAMG (Glioblastoma) [12]): 0.805
- combination Emax [13]: 0.426
- combination Emax [14]: 1
- combination Emax (A673 (Ewing's Sarcoma) [15]): 0.937
- combination Emax (MPP-89 (Mesothelioma) [16]): 0.599
- combination Emax [17]: 1
- combination Emax [18]: 0.574
- combination Emax [19]: 0.692
- combination Emax (KS-1 (Glioblastoma) [20]): 0.5
- combination Emax (EW-11 (Ewing's Sarcoma) [21]): 0.758
- combination Emax [22]: 0.996
- combination Emax [23]: 0.805
- Bliss excess (CAL-72 (Osteosarcoma) [24]): -0.0796
- Bliss excess [25]: 0.0838
- Bliss excess (LOXIMVI (Melanoma) [26]): -0.0118
- Bliss excess [27]: 0.0746
- Bliss excess [28]: -0.0035
- Bliss excess [29]: -0.013
- Bliss excess [30]: -0.0068
- Bliss excess [31]: -0.02
- Bliss excess [32]: 0.0443
- Bliss excess [33]: 0.109
- Bliss excess (GAMG (Glioblastoma) [34]): 0.0684
- Bliss excess [35]: -0.0186
- Bliss excess [36]: 0.0778
- Bliss excess (A673 (Ewing's Sarcoma) [37]): 0.039
- Bliss excess (MPP-89 (Mesothelioma) [38]): 0.0505
- Bliss excess [39]: 0.0774
- Bliss excess [40]: -0.0316
- Bliss excess [41]: 0.0364
- Bliss excess (KS-1 (Glioblastoma) [42]): 0.0304
- Bliss excess (EW-11 (Ewing's Sarcoma) [43]): -0.0613
- Bliss excess [44]: 0.0585
- Bliss excess [45]: 0.0536

SMILES: Cc1c2c(nn1C)CSCc1cc(n(C)n1)CSc1cc(c3ccccc3c1)OCCCc1c(C(=O)O)n(C)c3c-2c(Cl)ccc13 [AZD5991] + CS(=O)(=O)CCNCc1ccc(-c2ccc3ncnc(Nc4ccc(OCc5cccc(F)c5)c(Cl)c4)c3c2)o1 [Lapatinib] (first compound max 1 µM, 7x7, partner max 10 µM)
- combination Emax (CAL-72 (Osteosarcoma) [1]): 0.83
- combination Emax [2]: 0.185
- combination Emax (LOXIMVI (Melanoma) [3]): 0.535
- combination Emax [4]: 0.447
- combination Emax [5]: 0.909
- combination Emax [6]: 0.998
- combination Emax [7]: 0.394
- combination Emax [8]: 0.84
- combination Emax [10]: 0.502
- combination Emax [11]: 0.186
- combination Emax (GAMG (Glioblastoma) [12]): 0.507
- combination Emax [13]: 0.547
- combination Emax [14]: 0.936
- combination Emax (A673 (Ewing's Sarcoma) [15]): 0.388
- combination Emax (MPP-89 (Mesothelioma) [16]): 0.312
- combination Emax [17]: 0.702
- combination Emax [18]: 0.868
- combination Emax [19]: 0.334
- combination Emax (KS-1 (Glioblastoma) [20]): 0.147
- combination Emax (EW-11 (Ewing's Sarcoma) [21]): 0.572
- combination Emax [22]: 0.485
- combination Emax [23]: 0.482
- Bliss excess (CAL-72 (Osteosarcoma) [24]): 0.0088
- Bliss excess [25]: -0.0639
- Bliss excess (LOXIMVI (Melanoma) [26]): 0.017
- Bliss excess [27]: 0.0355
- Bliss excess [28]: -0.0347
- Bliss excess [29]: -0.0003
- Bliss excess [30]: -0.0106
- Bliss excess [46]: 0.0569
- Bliss excess [31]: -0.0463
- Bliss excess [32]: -0.0908
- Bliss excess [33]: -0.0084
- Bliss excess (GAMG (Glioblastoma) [34]): 0.0088
- Bliss excess [35]: 0.0212
- Bliss excess [36]: 0.0363
- Bliss excess (A673 (Ewing's Sarcoma) [37]): 0.0006
- Bliss excess (MPP-89 (Mesothelioma) [38]): -0.0088
- Bliss excess [39]: 0.0292
- Bliss excess [40]: -0.0635
- Bliss excess [41]: -0.0071
- Bliss excess (KS-1 (Glioblastoma) [42]): -0.0277
- Bliss excess (EW-11 (Ewing's Sarcoma) [43]): -0.0014
- Bliss excess [44]: -0.0208
- Bliss excess [45]: 0.0065

SMILES: C[C@@H]1COCCN1c1cc(C2([S@](C)(=N)=O)CC2)nc(-c2ccnc3[nH]ccc23)n1 [AZD6738] + Nc1ccn([C@@H]2O[C@H](CO)[C@@H](O)C2(F)F)c(=O)n1 [Gemcitabine] (first compound max 10 µM, 7x7, partner max 0.3 µM)
- combination Emax (CAL-72 (Osteosarcoma) [1]): 0.897
- combination Emax [2]: 0.655
- combination Emax (LOXIMVI (Melanoma) [3]): 0.92
- combination Emax [4]: 0.954
- combination Emax [5]: 0.993
- combination Emax [6]: 1
- combination Emax [7]: 0.705
- combination Emax [8]: 0.0714
- combination Emax [9]: 0.583
- combination Emax [10]: 0.994
- combination Emax [11]: 0.725
- combination Emax (GAMG (Glioblastoma) [12]): 0.87
- combination Emax [13]: 0.557
- combination Emax [14]: 1
- combination Emax (MPP-89 (Mesothelioma) [16]): 0.63
- combination Emax [17]: 1
- combination Emax [18]: 0.716
- combination Emax [19]: 0.743
- combination Emax (EW-11 (Ewing's Sarcoma) [21]): 0.833
- combination Emax [22]: 0.991
- combination Emax [23]: 0.779
- Bliss excess (CAL-72 (Osteosarcoma) [24]): 0.0282
- Bliss excess [25]: 0.0769
- Bliss excess (LOXIMVI (Melanoma) [26]): 0.0221
- Bliss excess [27]: 0.186
- Bliss excess [28]: 0.014
- Bliss excess [29]: 0.0098
- Bliss excess [30]: 0.104
- Bliss excess [46]: -0.0077
- Bliss excess [31]: 0.0524
- Bliss excess [32]: 0.0064
- Bliss excess [33]: 0.0296
- Bliss excess (GAMG (Glioblastoma) [34]): 0.0615
- Bliss excess [35]: 0.0623
- Bliss excess [36]: 0.153
- Bliss excess (A673 (Ewing's Sarcoma) [37]): 0.0144
- Bliss excess (MPP-89 (Mesothelioma) [38]): 0.0348
- Bliss excess [39]: 0.0734
- Bliss excess [40]: 0.0778
- Bliss excess [41]: -0.0407
- Bliss excess (KS-1 (Glioblastoma) [42]): 0.0043
- Bliss excess (EW-11 (Ewing's Sarcoma) [43]): -0.0094
- Bliss excess [44]: 0.0762
- Bliss excess [45]: 0.0144

Reference: the supplement of paper PMC11061612
